Experimental data reported in patent US5411983A, “Certain hyrdoxy-phosphinyl-oxy-phenylmethyl-imidazolium hydroxide inner salts as PAF antagonists” (American Cyanamid Company, priority 1993, dated 1995).
Where a name gives a salt, the structure may show the parent alone.

Tests used:
[1] = target: T1, PAF receptor (Oryctolagus cuniculus, UniProt G1TEI7); assay: Inhibition of PAF induced platelet aggregation in rabbit platelet rich plasma (PRP); assay type: cell-based, rabbit (male New Zealand White); set-up: immediately centrifuged at 800 rpm for 10 minutes at room temperature to recover the platelet rich plasma (PRP); endogenous in cells; host or cells: rabbit platelets in platelet rich plasma (male New Zealand White rabbits); conditions: for IC50: rabbit platelet rich plasma
T1 sequence (G1TEI7 1-342): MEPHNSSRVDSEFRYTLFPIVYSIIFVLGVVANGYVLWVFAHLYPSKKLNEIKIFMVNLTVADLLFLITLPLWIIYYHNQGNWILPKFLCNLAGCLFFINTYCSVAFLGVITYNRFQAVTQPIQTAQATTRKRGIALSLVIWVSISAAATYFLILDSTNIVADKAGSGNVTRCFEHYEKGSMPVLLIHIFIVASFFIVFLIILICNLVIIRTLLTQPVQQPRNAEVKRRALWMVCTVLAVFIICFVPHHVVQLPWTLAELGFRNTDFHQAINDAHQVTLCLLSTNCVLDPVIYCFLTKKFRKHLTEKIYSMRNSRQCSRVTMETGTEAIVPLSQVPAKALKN
Method: (§1) Platelet activating factor (PAF) compounds were evaluated as PAF receptor antagonists in vitro by measuring inhibition of PAF induced platelet aggregation. Platelet aggregation was measured by a modification of the method of A. Wissner, et. al., J. Med. Chem., 27, 1174, 1984.
(§2) Approximately 120-240 ml of blood were collected by cardiac puncture from unanesthetized male New Zealand White rabbits (Whaley's Summit View Farms, Belvedere, N.J.) with the use of 3.2% sodium citrate anticoagulant (1 part of citrate/10 parts of blood). All syringes and pipets were plastic. The blood was gently mixed and immediately centrifuged at 800 rpm for 10 minutes at room temperature to recover the platelet rich plasma (PRP). Platelet poor plasma (PPP) was prepared by centrifuging PRP at 2800 rpm for 10 minutes at room temperature.
(§3) Dilutions (1:3000) Of PRP in Isoton diluent were made and platelet counts were determined on a Coulter Thrombocounter which was standardized with platelet reference standards (Interscience Platelet Control, Portland, Oreg.). PRP platelet counts were adjusted to 500,000 platelets/μl by the addition of PPP.
(§4) L-PAF was obtained from Calbiochem. A stock solution of 1-2 E-3M was prepared in 10% ethanol in water and serial working dilutions were made using phosphate buffered saline (PBS). 1-2 E-3M stock solutions of test compounds were prepared in 100% methanol and serially diluted in PBS. All solutions were made up in plastic tubes, stored on ice and protected from heat and light. Solutions were prepared fresh or frozen at -20° C. and used within 48 hours.
(§5) Incubation mixtures consisted of 400 μl PRP, 50 μl of PBS diluent or test compound and 50 μl of PAF agonist. More specifically, 400 μl of PRP was stabilized in a cuvette for 1-2 minutes at 37° C. in the aggregometer to achieve a stable baseline, then 50 μl of PBS or test compound, was added and incubated for 5 minutes before addition of the challenge concentration of PAF ([…], as determined from the dose response curve for PAF for that experiment). Aggregation was monitored for 5 minutes. Samples containing test compound or diluent were run simultaneously for comparison. Test compounds were initially evaluated at a screening concentration of 1E-5M. Those producing ≥ 50% inhibition of the magnitude of aggregation were then reevaluated in a dose response fashion (final concentrations 1E-7M to 5E-5M) and IC50 values were determined. Ki values were also calculated in some cases from [formula] where Ki =inhibitory constant
(§6) IC50 =molar concentration of test compound which gives 50% inhibition
(§7) [PAF]=molar concentration of PAF used as challenges
(§8) EC50 =molar concentration of PAF which gives 50% of maximal aggregation.
(§9) The recording equipment consisted of single or dual channel Chronolog aggregometers connected to dual channel 10 MV full scale deflection Omniscribe chart recorders (Houston Instruments). […] The bead suspension was used to set the 0% light transmission mark and clear water was used to set the 100% light transmission mark. These limits defined a full scale deflection. The aggregation traces were analyzed by a digitizing method (C. Kohler and B. Zoltan, J. Pharm. Methods, 12, 113, 1984) with x, y coordinate data stored in a computer file. A suitable program computed parameters of interest such as the magnitude of aggregation.

[2] = target: T1, PAF receptor; assay: Inhibition of PAF induced platelet aggregation in washed rabbit platelets; assay type: cell-based; set-up: In some experiments, washed platelets were used instead of PRP; endogenous in cells; host or cells: washed rabbit platelets; conditions: for IC50: challenge concentration of PAF 5E9M [sic]; for Ki: calculated from IC50, [PAF] and EC50
Method: as §1, §2, §3, §4, §5, §6, §7, §8, §9
In some experiments, washed platelets were used instead of PRP. Washed platelet suspensions were prepared as follows. PRP was centrifuged at 2800 rpm for 10 minutes to obtain PPP and a platelet pellet. The pellet was gently suspended and washed in calcium free, albumin free Tyrode's buffer, pH 6.3. The suspension was recentrifuged and the washed pellet was resuspended in normal Tyrodes', buffer (with calcium, but albumin free), pH 7.4. Platelet counts were adjusted to 500,00 platelets/μl.

[3] = test system: PAF induced lethality; assay: PAF induced lethality in the mouse; assay type: in vivo, mouse (ICR); conditions: ip, 1 h, mice, test compound i.p. 1/2 hour before PAF i.v., dose that protects 1/2 the animals, read-out: PAF induced Lethality PD50 (mg/kg I.P., 1/2 hour)
Method: PAF Induced Lethality in the Mouse
Test compounds were evaluated for their ability to prevent death induced by an intravenous injection of a lethal dose of PAF.
ICR mice were given test compounds intraperitoneally as described under Inhibition of PAF Induced Vascular Permeability Change in Mouse Skin, 1/2 hour before an intravenous dose of 100 μg/kg PAF in saline. One hour later the number of dead mice were recorded. Protection was expressed as percent survivors in treated group/percent survivors in control group.

[4] = test system: PAF induced vascular permeability change in guinea pig skin
Text: Platelet Activating Factor (PAF) given intradermally, increases capillary permeability, and plasma proteins (e.g albumin) leak from the vascular space into the interstitial fluids of the skin. If the albumin has been previously stained with Evans' blue dye, the lesion area can be visualized as a blue spot in the .skin. A specific PAF antagonist inhibits the development of increased capillary permeability caused by PAF and reduces the leakage of proteins into the skin. Test compounds were evaluated for non-specific effects by monitoring their ability to inhibit or reduce a histamine induced increase in capillary permeability.
Test Solutions were prepared as follows: Evans' Blue Dye (Sigma E2129) was dissolved in saline to yield a 0.1% w/v solution. A 2 mg/ml stock chloroform solution of PAF (1-phosphotidyl, acetyl-O-alkyl; Sigma P9525) was diluted in saline to give final concentrations of 500 and 250 ng/ml. Saline dilutions were made fresh for each test. Histamine diphosphate solutions (Sigma H7375) were prepared by dissolving 10 mg in 100 ml of saline and diluting to 20 μg/ml with saline. Test compounds were dissolved in ethanol at 10 mg/ml and stored at -70° C. Injection mixtures were made by placing 10 μl of test compound solution into 1.0 ml of either the PAF solutions or the histamine solution.
The animals used were Hartley strain guinea pigs weighing 250-350 g, maintained with food and water ad libitum. The animals were shaved on their back and hind feet one day before use.
Each guinea pig was given an intravenous injection of 2 ml of Evans' blue dye solution into a foot vein. Immediately after, a series of six intradermal injections of 0.1 ml each were given, three on each side of the animal. They were: PAF 50 ng (0.1 ml of a 500 ng/ml solution); PAF 25 ng; and histamine diphosphate 2 μg. The left side injections contain 10 μg of test compound while the right side contain an equivalent amount of the ethanol vehicle to serve as a control.
Thirty minutes later the animals were killed by cervical dislocation and the skin reflected from the back. The lesion areas were approximated as the product of the largest diameter and normal diameter both in mm.

[5] = test system: PAF induced vascular permeability change in mouse skin; assay: Inhibition of PAF induced vascular permeability change in mouse skin; assay type: in vivo, mouse (Hilltop ICR); conditions: ip, 0.5 h, test compound i.p., PAF i.d., read-out: Inhibition of Vascular Permeability Lesion (ED50 mg/kg)
Method: Inhibition of PAF Induced Vascular Permeability Change in Mouse Skin
The rationale for this test is similar to the coinjection test in guinea pigs; however, the test compound was given intraperitoneally rather than coinjected.
Test solutions were prepared as follows: An 80 μg portion of PAF was dissolved in 40 ml of saline to yield a concentration of 2000 ng/ml. A 10 mg portion of histamine diphosphate was dissolved in 100 ml of saline to yield a concentration 100 μg/ml. Test compounds were dissolved in saline and given intraperitoneally (20 mg/kg) 1/2 hour before intradermal challenge with PAF or histamine.
The animals used were Hilltop ICR mice, shaved on their flanks one day before use. The mice were randomly assigned to treated and control groups and were given test compound or saline 1/2 hour before challenge. Each mouse was injected via a tail vein with 0.25 ml of 0.05% Evans' blue dye immediately before the PAF or histamine intradermal injections were made (0.05 ml each), one per side.
Thirty minutes later the animals were killed and the lesions areas measured as described above. Lesion areas in treated animals were expressed as a percent of the control lesions and an ED50 (mg/kg) was calculated from an arcsine area vs. log dose transform.

[6] = IC50 (M) PRP, inhibition of PAF-induced platelet aggregation, PAF challenge 1E-6M
[7] = IC50 (M) PRP, inhibition of PAF-induced platelet aggregation, PAF challenge 1E-7M
[8] = IC50 (M) PRP, inhibition of PAF-induced platelet aggregation, PAF challenge 5E-8M

IC50 ([1]; PAF challenge 5E-8M, read-out: IC50 (M) PRP, inhibition of PAF-induced platelet aggregation) [M] | SMILES | IC50 [2] [nM] | Ki [1] [nM] | IC50 [1, 6] [M] | IC50 [1, 7] [M] | IC50 [1, 8] [M] | Ki [2] [nM] | ED50 [3] [mg/kg] | Inhibition of Vascular Permeability Lesion (% of Control) [4] | ED50 [5] [mg/kg]
3.4e-06 | CCCCCCCCCCCCCCCCOCC(COCc1cccc(Cn2cc[n+](C)c2)c1)OC (stereo not shown) [1-[[3-[[3-(Hexadecyloxy)-2-methoxypropoxy]methyl]phenyl]methyl]-3-methyl-1H-imidazolium, iodide] | 1500 | – | – | – | – | – | – | – | –
– | CCCCCCCCCCCCCCCCCCNC(=O)OCC(COP(=O)([O-])Oc1ccccc1C[n+]1ccsc1)OC (stereo not shown) [3-[[2-[(1-Hydroxy-4-methoxy-7-oxo-2,6-dioxa-8-aza-1-phosphahexacosyl)oxy]phenyl]methyl]thiazolium, hydroxide, inner salt, P-oxide] | 52 | 310 | 2.5e-05 | 1.4e-06 | 5.6e-07 | 7.2 | < 2.5 | 25 % of Control | 5
– | CCCCCCCCCCCCCCCCCCNC(=O)OCC(COP(=O)([O-])Oc1cccc(C[n+]2ccsc2)c1)OC (stereo not shown) [3-[[3-[(1-Hydroxy-4-methoxy-7-oxo-2,6-dioxa-8-aza-1-phosphahexacosyl)oxy]phenyl]methyl]thiazolium, hydroxide, inner salt P-oxide] | – | – | – | – | – | – | – | 61.8 % of Control | 6.2
– | COC(COc1ccc(OCc2ccccc2)cc1)COP(=O)([O-])Oc1cccc(C[n+]2ccsc2)c1 (stereo not shown) [3-[[3-[[Hydroxy-2-methoxy-3-[4-(phenylmethoxy)phenoxy]propoxy]phosphinyl]oxy]phenyl]methyl]thiazolium, hydroxide, inner salt] | – | – | – | – | 3.3e-05 | – | < 25 | 67 % of Control | 20
– | CCCCCCCCCCCCCCCCOCC(COP(=O)([O-])Oc1cccc(C[n+]2csc(C)c2)c1)OC (stereo not shown) [3-[[3-[[[3-(Hexadecyloxy)-2-methoxypropoxy]hydroxyphosphinyl]oxy]phenyl]methyl]-5-methylthiazolium, hydroxide, inner salt] | 32 | 210 | 1.2e-05 | 7.1e-07 | 8.2e-07 | 15 | < 1.25 | 24 % of Control | 4.8
– | CCCCCCCCCCCCCCCCOCC(COP(=O)([O-])Oc1cccc(C[n+]2ccsc2)c1)OC (stereo not shown) [3-[[3-[[[3-(Hexadecyloxy)-2-methoxypropoxy]hydroxyphosphinyl]oxy]phenyl]methyl]thiazolium, hydroxide, inner salt] | 17 | 490 | 4.7e-05 | 1e-06 | 9.9e-07 | 8 | < 1.25 | 25 % of Control | 5.6
– | CCCCCCCCCCCCOc1cccc(OCC(COP(=O)([O-])Oc2cccc(C[n+]3ccsc3)c2)OC)c1C (stereo not shown) [3-[[3-[[[3-[3-(Dodecyloxy)-2-methylphenoxy]-2-methoxypropoxy]hydroxyphosphinyl]oxy]phenyl]methyl]thiazolium, hydroxide, inner salt] | – | 510 | 2.4e-05 | 1.9e-06 | 2.3e-06 | – | < 1.25 | 20.4 % of Control | 8.2
– | CCCCCCCCCCCCCCCCCC(=O)NCC(COCCCCCCCCCCCCCCCC)COP(=O)([O-])Oc1cccc(C[n+]2ccsc2)c1 (stereo not shown) [3-[[3-[[[(2-[(Hexadecyloxy)methyl]-3-[(1-oxooctadecyl)amino]propoxy]hydroxy-phosphinyl]oxy]phenyl]methyl]thiazolium, hydroxide, inner salt] | – | – | – | 0.00013 | 4.8e-05 | – | – | – | –
– | C=C(C)COC(COCCCCCCCCCCCCCCCC)COP(=O)([O-])Oc1cccc(C[N+](C)(C)C)c1 (stereo not shown) [3-[[[3-(Hexadecyloxy)-2[(2-methyl-2-propeny)oxy]propoxy]hydroxyphosphinyl]-oxy]- --N, --N, --N-trimethylbenzenemethanaminium, hydioxide, inner salt] | – | – | – | 4.8e-05 | – | – | – | – | –
– | CCCCCCCCCCCCOc1cccc(OCC(COP(=O)([O-])Oc2cccc(C[N+](C)(C)C)c2)OC)c1C (stereo not shown) [3-[[[3-[3-(Dodecyloxy)-2-methylphenoxy]-2-methoxypropoxy]hydroxyphosphinyl]oxy]-N,N,N-trimethylbenzenemethanaminum, hydroxide, inner salt] | – | – | – | – | 6e-06 | – | – | – | –
– | CCCCCCCCCCCCCCc1cccc(OCC(COP(=O)([O-])Oc2cccc(C[n+]3ccsc3)c2)OC)c1 (stereo not shown) [[[3-[[3-[[Hydroxy[2-methoxy-3-(3-tetradecylphenoxy)propoxy]phosphinyl]oxy]phenyl]methyl]thiazolium, hydroxide, inner salt] | 9.5 | 210 | 4e-06 | 9.5e-07 | 8.1e-07 | 1.4 | < 1.25 | 3.8 % of Control | 5.3
– | CCCCCCCCCCCCCCc1cccc(OCC(COP(=O)([O-])Oc2cccc(C[S+](C)C)c2)OC)c1 (stereo not shown) [[[3-[[Hydroxy-[2-methoxy-3-(3-tetradecylphenoxy]propoxy]phosphinyl]oxy]-phenyl]methyl]dimethylsulfouium, hydroxide, inner salt] | – | – | – | 2.9e-05 | 3.4e-06 | – | – | – | –
– | CCCCCCCCCCCCCCCCOCC(COP(=O)(O)Oc1cccc(C[P+](c2ccccc2)(c2ccccc2)c2ccccc2)c1)OC (stereo not shown) [[[3-[[[3-(Hexadecyloxy)-2-methoxypropoxy]hydroxyphosphinyl]oxy]phenyl]-methyl]triphenylphosphonium, bromide] | – | – | – | – | 1.4e-05 | – | – | – | –
